Here are results for 1 molecule from US20260224555A1, “NEW PHENYLQUINOLONE COMPOUND HAVING ANTIBACTERIAL AND ANTI-CANCER FUNCTIONS AND PREPARATION THEREOF” (AlphaMol Science Ltd (Shanghai), priority 2022, published 2026).

Test in all cases: In vitro anticancer activity test (MTT cell proliferation)
Common to all, as to assay type: cell-based

The test system of assay [1] is Hela. The settings on record: Homo sapiens, average proliferation inhibition rate at the dosage of 40 μM, read-out: Hela Average inhibition rate %. As for the experimental part: The anticancer activity of the compounds was tested using an in vitro cancer cell tests. The specific test method is as follows:
1. Cell recovery and culture method: the cryovial was taken out from the liquid nitrogen container firstly, soaked directly in 37° C. warm water, and shaked from time to time to let it thaw as soon as possible. Then, the cryovial was transferred to a clean bench, and the lid was open. The cell suspension was taken into a centrifuge tube using a rubber-tipped dropper and more than 10 times the culture medium was added, mixed well, and centrifuged at 50 g for 5 minutes. Then, the supernatant was discarded, complete culture medium containing 10% fetal bovine serum was added to resuspend the cells, the cells was counted, the cell density was adjusted, and then inoculated into a culture bottle. The culture bottle was placed in a cell culture incubator at 5% CO2 and 37° C. The complete culture medium was replaced once the next day and the culture was continued.
2. Cell passaging method: adherent cells in the logarithmic growth phase were placed in a clean bench, the original culture medium was discarded, and washed three times with 1×PBS. An appropriate amount of 0.25% trypsin digestion solution was added to moisten the cells, and then the trypsin solution was aspirated. The cells were placed in a cell culture incubator at 5% CO2 and 37° C. for digestion for a suitable time, and observed under a microscope. When 90% of the cells become round, the cells were moved immediately to the clean bench and complete culture medium was added to terminate digestion. Then, the cells were dislodged by pipetting up and down with a rubber-tipped dropper to single cells. The cells were counted, and the cell density was adjusted. The cells were inoculated into a suitable culture bottle or dish, added enough complete culture medium, and placed in a cell culture incubator at 5% CO2 and 37° C. for static culture.
For suspension cells in the logarithmic phase, the original culture medium was directly centrifuged at 50 g for 5 minutes, the supernatant was discarded, and the cells were washed once with PBS and centrifuged. After discarding the supernatant, the complete culture medium was added and the cells were dispersed using a rubber-tipped dropper. The cells are counted, and the cell density was adjusted. The cells were inoculated into appropriate culture bottles or culture dishes, and sufficient complete culture medium was added, and the cells were cultured in a cell culture incubator at 5% CO2 and 37° C.
3. Cell proliferation assay: cells in good state in logarithmic phase were taken and appropriate amount of the cells was inoculated into 96-well plates according to the cell passage treatment method, with each well containing 180 μL complete medium. After the cells growth was recovered and the number of cells in each well is 5000±500, a drug was added for treatment.
After drug treatment during the experimental time, MTT solution with a final concentration of 0.5 mg/mL was added to each well, and placed in a cell culture incubator at 5% CO2 and 37° C. to allow a fully reaction of MTT with cells. After 4 hours, the solution in the 96-well plate was discarded, 100 µL of DMSO was added, and shaked to dissolve the formazan precipitated at the bottom of the plate, and the absorbance value of samples was detected at a wavelength of 570 nm using a microplate reader. Calculation method of cell viability rate:
Table 4 lists some compounds that have inhibitory effects against both of bacteria and cancer cells. In the table, the inhibitory effects against cancer cells are shown: the average proliferation inhibition rate (%) against cancer cells at the dosage of 40 μM.

The subject of assay [2] is Hela. The settings on record: Homo sapiens.
The test system of assay [3] is pancreatic cancer cell PNAC-1.
Assay [4] has as its system human osteosarcoma cell U2-OS. The settings on record: U2OS.
Assay [5] deals with human prostate cancer cell PC-3.
Assay [6] deals with human non-small cell lung cancer cell A549.
In assay [7] the test system is human acute monocytic leukemia cell THP-1.
For assay [8], the system named is human renal cancer cell OS-RC-2.

One may read the inhibition as the relative decrease from the control value, in per cent. As a reminder, the IC50 is the concentration that inhibits the measured activity by half. Low values mean higher potency, high ones lower potency. Regarding `O=C(CCl)Nc1ncc(-c2cc3c(cc2F)c(=O)c(C(=O)O)cn3C2CC2)cc1F` [Example 135], in the assay on Hela [1], the inhibition at 40 µM was ≥ 50%. Besides, the IC50 (in the assay on Hela [2]; in assay [3]; in assay [4]; in assay [5]; in assay [6]; in assay [7]) was 1 to 10 µM in each case. The IC50 in assay [8] lay in the range of 1 to 10 µM.
